The text below walks through data of ChEMBL document CHEMBL1122473, “Synthesis and antibacterial activity of some 3-[(alkylthio)methyl]quinoxaline 1-oxide derivatives” (1983).

Type in all cases: functional
In one assay the test system is Escherichia coli. Nature of the assay: In vitro antibacterial activity under anaerobic conditions against Escherichia coli strain 51A266.
For the next assay, the system named is Pasteurella multocida. Nature of the assay: In vitro antibacterial activity under anaerobic conditions against Pasteurella multocida strain 59A004.
In a further assay the test system is Salmonella enterica. Nature of the assay: In vitro antibacterial activity under anaerobic conditions against Salmonella choleraesuis strain 58B242.
The next assay relates to Streptococcus pyogenes. Nature of the assay: In vitro antibacterial activity under anaerobic conditions against […] pyogenes strain 2C203.
Assay [1] relates to Brachyspira hyodysenteriae. Nature of the assay: In vitro antibacterial activity under anaerobic conditions against Treponema hyodysenteriae strain 94A002.

A word on the MIC: it is the lowest concentration that inhibits growth of the organism. Low readings indicate inhibition by little substance, high ones a need for much substance.

≈ marks a conversion by molar mass, not a printed value.

For the compound `CNC(=O)c1c(CS(C)(=O)=O)nc2ccccc2[n+]1[O-]`, the MIC in the assay on Escherichia coli was found to be 3.12 µg/mL (≈ 10.6 µM); in the assay with Pasteurella multocida, 0.78 µg/mL (≈ 2.64 µM); with Salmonella enterica, 6.25 µg/mL (≈ 21.2 µM); in the assay with Streptococcus pyogenes, 6.25 µg/mL (≈ 21.2 µM); in assay [1] it was 3.12 µg/mL (≈ 10.6 µM).
Turning to `CS(=O)(=O)Cc1nc2ccccc2[n+]([O-])c1S(C)(=O)=O`, the MIC with Escherichia coli is 25 µg/mL (≈ 79 µM); in the assay with Pasteurella multocida, 3.12 µg/mL (≈ 9.86 µM); in the assay with Salmonella enterica it was 25 µg/mL (≈ 79 µM); with Streptococcus pyogenes, 6.25 µg/mL (≈ 19.8 µM); in assay [1], over 25 µg/mL.
For the compound `CNC(=O)c1c(CS(=O)(=O)CCO)nc2ccccc2[n+]1[O-]`, the MIC in the assay with Escherichia coli is 6.25 µg/mL (≈ 19.2 µM); against Pasteurella multocida it was 3.12 µg/mL (≈ 9.59 µM); against Salmonella enterica, 25 µg/mL (≈ 76.8 µM); with Streptococcus pyogenes it was 6.25 µg/mL (≈ 19.2 µM); in assay [1] it was 12.5 µg/mL (≈ 38.4 µM).
As for `COC(=O)N/N=C/c1c[n+]([O-])c2ccccc2[n+]1[O-]` [CARBADOX], the minimal inhibitory concentration (MIC) with Escherichia coli amounted to 0.39 µg/mL (≈ 1.49 µM); against Pasteurella multocida it was 0.78 µg/mL (≈ 2.97 µM); in the assay with Salmonella enterica it was 0.19 µg/mL (≈ 0.725 µM); with Streptococcus pyogenes it was 0.19 µg/mL (≈ 0.725 µM); in assay [1], 0.19 µg/mL (≈ 0.725 µM).
In the case of `CCS(=O)(=O)Cc1nc2ccccc2[n+]([O-])c1C(C)=O`, the MIC came out at 25 µg/mL (≈ 84.9 µM) against Escherichia coli; 6.25 µg/mL (≈ 21.2 µM) in the assay on Pasteurella multocida; 50 µg/mL (≈ 170 µM) with Salmonella enterica; 1.56 µg/mL (≈ 5.3 µM) with Streptococcus pyogenes; 0.78 µg/mL (≈ 2.65 µM) in assay [1].
Take `CC(=O)c1c(CS(C)(=O)=O)nc2ccccc2[n+]1[O-]`: the MIC against Escherichia coli came out at 12.5 µg/mL (≈ 44.6 µM); in the assay with Pasteurella multocida, 0.78 µg/mL (≈ 2.78 µM); in the assay with Salmonella enterica it was 12.5 µg/mL (≈ 44.6 µM); against Streptococcus pyogenes, 1.56 µg/mL (≈ 5.57 µM); in assay [1], 0.19 µg/mL (≈ 0.678 µM).
In the case of `CS(=O)(=O)Cc1nc2ccccc2[n+]([O-])c1C#N`, the MIC was over 200 µg/mL against Escherichia coli, 200 µg/mL (≈ 760 µM) in the assay on Pasteurella multocida, over 200 µg/mL in the assay with Salmonella enterica and 25 µg/mL (≈ 95 µM) against Streptococcus pyogenes.
As to `CC(=O)c1c(CS(=O)(=O)CCO)nc2ccccc2[n+]1[O-]`, the minimal inhibitory concentration (MIC) in the assay with Escherichia coli is 25 µg/mL (≈ 80.6 µM); in the assay on Pasteurella multocida it was 1.56 µg/mL (≈ 5.03 µM); in the assay on Salmonella enterica, 50 µg/mL (≈ 161 µM); in the assay with Streptococcus pyogenes it was 6.25 µg/mL (≈ 20.1 µM); in assay [1] it was 3.12 µg/mL (≈ 10.1 µM).
In the case of `CCCS(=O)(=O)Cc1nc2ccccc2[n+]([O-])c1C(C)=O`, the MIC amounted to 100 µg/mL (≈ 324 µM) in the assay on Escherichia coli, 3.12 µg/mL (≈ 10.1 µM) against Pasteurella multocida, 200 µg/mL (≈ 649 µM) against Salmonella enterica and 6.25 µg/mL (≈ 20.3 µM) with Streptococcus pyogenes.
In the case of `COC(=O)c1c(CS(C)(=O)=O)nc2ccccc2[n+]1[O-]`, the MIC with Escherichia coli amounted to 3.12 µg/mL (≈ 10.5 µM); against Pasteurella multocida it was 0.78 µg/mL (≈ 2.63 µM); against Salmonella enterica it was 6.25 µg/mL (≈ 21.1 µM); against Streptococcus pyogenes, 3.12 µg/mL (≈ 10.5 µM); in assay [1], 1.56 µg/mL (≈ 5.26 µM).
`CC(=O)c1c(C[S+]([O-])CCO)nc2ccccc2[n+]1[O-]` (configuration not stated): the MIC against Escherichia coli came out at 25 µg/mL (≈ 84.9 µM); against Pasteurella multocida, 3.12 µg/mL (≈ 10.6 µM); in the assay on Salmonella enterica it was 6.25 µg/mL (≈ 21.2 µM); against Streptococcus pyogenes, 25 µg/mL (≈ 84.9 µM).
Regarding `CC(=O)c1c(C[S+](C)[O-])nc2ccccc2[n+]1[O-]` (configuration not stated), the MIC against Escherichia coli amounted to 25 µg/mL (≈ 94.6 µM); against Pasteurella multocida, 3.12 µg/mL (≈ 11.8 µM); in the assay on Salmonella enterica it was 25 µg/mL (≈ 94.6 µM); in the assay with Streptococcus pyogenes it was 6.25 µg/mL (≈ 23.6 µM); in assay [1], 6.25 µg/mL (≈ 23.6 µM).
As for `COC(=O)c1c(CS(=O)(=O)CCO)nc2ccccc2[n+]1[O-]`, the MIC worked out at 6.25 µg/mL (≈ 19.2 µM) in the assay with Escherichia coli; 1.56 µg/mL (≈ 4.78 µM) against Pasteurella multocida; 25 µg/mL (≈ 76.6 µM) against Salmonella enterica; 0.78 µg/mL (≈ 2.39 µM) against Streptococcus pyogenes; 1.56 µg/mL (≈ 4.78 µM) in assay [1].
`CS(=O)(=O)Cc1nc2ccccc2[n+]([O-])c1C(N)=O`: the MIC with Escherichia coli stood at 1.56 µg/mL (≈ 5.55 µM); in the assay with Pasteurella multocida it was 1.56 µg/mL (≈ 5.55 µM); in the assay with Salmonella enterica it was 3.12 µg/mL (≈ 11.1 µM); in the assay with Streptococcus pyogenes, 0.78 µg/mL (≈ 2.77 µM); in assay [1], 6.25 µg/mL (≈ 22.2 µM).
On to `CCS(=O)(=O)Cc1nc2ccccc2[n+]([O-])c1C(=O)NC`, for which the MIC against Escherichia coli was determined as 12.5 µg/mL (≈ 40.4 µM); against Pasteurella multocida, 6.25 µg/mL (≈ 20.2 µM); in the assay on Salmonella enterica it was 25 µg/mL (≈ 80.8 µM); against Streptococcus pyogenes, 12.5 µg/mL (≈ 40.4 µM); in assay [1], 6.25 µg/mL (≈ 20.2 µM).
